The record followed here is patent US6656911B2, “Serine protease inhibitors” (Cortech, Inc., priority 1994, dated 2003).

In this test the target is T1, human neutrophil elastase (HNE) (Homo sapiens, UniProt P08246).
T1 sequence (P08246 30-267): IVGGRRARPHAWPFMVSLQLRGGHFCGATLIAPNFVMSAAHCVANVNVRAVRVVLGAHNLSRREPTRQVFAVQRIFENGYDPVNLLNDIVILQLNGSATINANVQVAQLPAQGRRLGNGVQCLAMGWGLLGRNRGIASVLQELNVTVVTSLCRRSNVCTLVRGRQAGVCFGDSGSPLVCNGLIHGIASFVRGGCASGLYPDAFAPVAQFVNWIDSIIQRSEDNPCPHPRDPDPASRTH
The experiment in a line: HNE Ki of CE compounds, tested as described in WO 96/16080. Type of test: biochemical. The conditions noted are these: read-out: HNE Ki.

What is called Ki is the equilibrium dissociation constant of an inhibitor or competing ligand from its target. For “2-Oxo-5-methyl-1,4-(1-thiophenodiazepine)-N-[1-(2-[5-(3-methylbenzyl)-1,3,4-oxadiazolyl]carbonyl)-2-(S)-methylpropyl]acetamide [CE2244]”, the Ki turned out to be 78.5 nM.
Consider “3-(S)-Amino-ε-lactam-N-[1-(2-[5-(3-methylbenzyl)-1,3,4-oxadiazolyl]carbonyl)-2-(S)-methylpropyl]acetamide trifluoroacetic acid salt [CE2080]”, for which the Ki stood at 62 nM.
Regarding “3-(S)-[(4-Morpholino carbonyl-butanoyl)amino]-ε-lactam-N-[1-(2-[5-(3-methylbenzyl)-1,3,4-oxadiazolyl]carbonyl)-2-(R,S)-methylpropyl]acetamide [CE2091]”, the Ki is 270 nM.
In the case of `Cc1cc(C)cc(Cc2nc(C(=O)[C@@H](NC(=O)[C@@H]3CCCN3C(=O)[C@@H](NC(=O)OCc3ccccc3)C(C)C)C(C)C)no2)c1` [CE2052, (Benzyloxycarbonyl)-L-valyl-N-[1-(3-[5-(3,5-dimethylbenzyl)-1,2,4-oxadiazolyl)carbonyl)-2-(S)-methylpropyl]-L-prolinamide] it was 0.37 nM; in that of `COc1cc(Cc2nc(C(=O)[C@@H](NC(=O)[C@@H]3CCCN3C(=O)[C@@H](NC(=O)OCc3ccccc3)C(C)C)C(C)C)no2)cc(OC)c1` [CE2053, (Benzyloxycarbonyl)-L-valyl-N-[1-(3-[5-(3,5-dimethoxybenzyl)-1,2,4-oxadiazolyl]carbonyl)-2-(S)-methylpropyl]-L-prolinamide], 0.41 nM.
Turning to `CC(C)[C@H](NC(=O)[C@@H]1CCCN1C(=O)[C@@H](NC(=O)OCc1ccccc1)C(C)C)C(=O)c1noc(Cc2cc(C(F)(F)F)cc(C(F)(F)F)c2)n1` [CE2054, (Benzyloxycarbonyl)-L-valyl-N-[1-(3-[5-(3,5-ditrifluoromethylbenzyl)-1,2,4-oxadiazolyl]carbonyl)-2-(S)-methylpropyl]-L-prolinamide], the Ki was determined as 0.29 nM.
In the case of `CC(C)[C@H](NC(=O)[C@@H]1CCCN1C(=O)[C@@H](NC(=O)OCc1ccccc1)C(C)C)C(=O)c1noc(C(c2ccccc2)c2ccccc2)n1` [CE2057] it was 0.375 nM.
In the case of `CC(C)[C@H](NC(=O)[C@@H]1CCCN1C(=O)[C@@H](NC(=O)OCc1ccccc1)C(C)C)C(=O)c1noc(Cc2ccc(-c3ccccc3)cc2)n1` [CE2058, (Benzyloxycarbonyl)-L-valyl-N-[1-(3-[5-(4-phenylbenzyl)-1,2,4-oxadiazolyl]carbonyl)-2-(S)-methylpropyl]-L-prolinamide] it was 0.564 nM; in that of `CC(C)[C@H](NC(=O)[C@@H]1CCCN1C(=O)[C@@H](NC(=O)OCc1ccccc1)C(C)C)C(=O)c1noc(Cc2cccc(-c3ccccc3)c2)n1` [CE2062, (Benzyloxycarbonyl)-L-valyl-N-[1-(3-[5{3-phenylbenzyl)-1,2,4-oxadiazolyl]carbonyl)-2-(S)-methylpropyl]-L-prolinamide], 0.3 nM.
In the case of `CC(C)[C@H](NC(=O)[C@@H]1CCCN1C(=O)[C@@H](NC(=O)OCc1ccccc1)C(C)C)C(=O)c1noc(Cc2cccc(Oc3ccccc3)c2)n1` [CE2066, (Benzyloxycarbonyl)-L-valyl-N-[1-(3-[5-(3-phenoxybenzyl)-1,2,4-oxadiazolyl]carbonyl)-2-(S)-methylpropyl]-L-prolinamide], the Ki came to 0.98 nM.
In the case of `CC(C)[C@H](NC(=O)[C@@H]1CCCN1C(=O)[C@@H](NC(=O)OCc1ccccc1)C(C)C)C(=O)c1noc(CC2CCCCC2)n1` [CE2069] it was 4.4 nM.
Next, `CC(C)[C@H](NC(=O)[C@@H]1CCCN1C(=O)[C@@H](NC(=O)OCc1ccccc1)C(C)C)C(=O)c1noc(C(C)(C)c2cccc(C(F)(F)F)c2)n1` [CE2073, (Benzyloxycarbonyl)-L-valyl-N-[1-(3-[5-(α,α-dimethyl-3-trifluoromethylbenzyl)-1,2,4-oxadiazolyl]carbonyl)-2-(S)-methylpropyl]-L-prolinamide]: 0.235 nM; `Cc1nnc(C(=O)[C@@H](NC(=O)[C@@H]2CCCN2C(=O)[C@@H](NC(=O)OCc2ccccc2)C(C)C)C(C)C)o1` [CE2074]: 1 nM; `CC(C)[C@H](NC(=O)[C@@H]1CCCN1C(=O)[C@@H](NC(=O)OCc1ccccc1)C(C)C)C(=O)c1nnc(Cc2cccc(C(F)(F)F)c2)o1` [CE2075, (Benzyloxycarbonyl)-L-valyl-N-[1-(2-[5-(3-trifluoromethylbenzyl)-1,3,4-oxadiazolyl]carbonyl)-2-(S)-methylpropyl]-L-prolinamide]: 0.039 nM.
Take `CC(C)[C@H](NC(=O)[C@@H]1CCCN1C(=O)[C@@H](NC(=O)OCc1ccccc1)C(C)C)C(=O)c1noc(Cc2cccc3ccccc23)n1` [CE2077, (Benzyloxycarbonyl)-L-valyl-N-[1-(3-[5-(1-napthylmethylene)-1,2,4-oxadiazolyl]carbonyl)-2-(S)-methylpropyl]-L-prolinamide]: the Ki was found to be 0.15 nM.
In the case of `CC(C)[C@H](NC(=O)[C@@H]1CCCN1C(=O)[C@@H](NC(=O)OCc1ccccc1)C(C)C)C(=O)c1noc(Cc2cccnc2)n1` [CE2078, (Benzyloxycarbonyl)-L-valyl-N-[1-(3-[5-(3-pyridylmethyl)-1,2,4-oxadiazolyl]carbonyl)-2-(S)-methylpropyl]-L-prolinamide] it was 1.05 nM; in that of `CC(C)C(NC(=O)CN1C(=O)CN(C)C(=O)C1c1ccccc1)C(=O)c1noc(Cc2cccc(C(F)(F)F)c2)n1` [CE2084, 4-[1-Methyl-3-(R,S)-phenylpiperazine-2,5,-dione]-N-[1-(3-[5-(3-trifluoromethylbenzyl)-1,2,4-oxadiazolyl]carbonyl)-2-(S)-methylpropyl]acetamide], 133 nM.
Next, `Cc1cccc(Cc2nnc(C(=O)C(NC(=O)CN3C(=O)CCCC3c3ccc(F)cc3)C(C)C)o2)c1` [CE2087, 6-[4-Fluorophenyl]-ε-lactam-N-[1-(2-[5-(3-methylbenzyl)-1,3,4-oxadiazolyl]carbonyl)-2-(S)-methylpropyl]acetamide]: 20 nM; `CC(C)[C@H](NC(=O)Cn1c(-c2ccc(F)cc2)ncc(NC(=O)OCc2ccccc2)c1=O)C(=O)c1noc(Cc2cccc(C(F)(F)F)c2)n1` [CE2089, 2-[5-[(Benzyloxycarbonyl]amino]-6-oxo-2-(4-fluorophenyl)-1,6-dihydro-1-pyrimidinyl]-N-[1-(3-[5-(3-trifluoromethylbenzyl)-1,2,4-oxadiazolyl]carbonyl)7(S)-2-methylpropyl]acetamide]: 1.5 nM; `CC(C)[C@H](NC(=O)Cn1c(-c2ccc(F)cc2)ncc(N)c1=O)C(=O)c1noc(Cc2cccc(C(F)(F)F)c2)n1` [CE2090]: 2.7 nM.
Next, `CC(C)[C@H](NC(=O)[C@@H]1CCCN1C(=O)[C@@H](NC(=O)OCc1ccccc1)C(C)C)C(=O)c1noc(Cc2cc(-c3ccccc3)cc(-c3ccccc3)c2)n1` [CE2096, (Benzyloxycarbonyl)-L-valyl-N-[1-(3-[5-(3,5-diphenylbenzyl)-1,2,4-oxadiazolyl]carbonyl)-2-(S)-methylpropyl]-L-prolinamide]: 0.79 nM; `CC(C)[C@H](NC(=O)CN(Cc1ccccc1)C(=O)c1ccc[nH]1)C(=O)c1noc(Cc2cccc(C(F)(F)F)c2)n1` [CE2097, (Pyrrole-2-carbonyl)-N-(benzyl)glycyl-N-[1-(3-[5-(3-trifluoromethylbenzyl)1-1,2,4-oxadiazolyl]carbonyl)-(S)-methylpropyl]amide]: 115 nM; `Cc1cccc(Cc2nnc(C(=O)[C@@H](NC(=O)[C@@H]3CCCN3C(=O)[C@@H](NC(=O)N3CCOCC3)C(C)C)C(C)C)o2)c1` [CE2104, (Morpholino-N-carbonyl)-L-valyl-N-[1-(2-[5-(3-methylbenzyl)-1,3,4-oxadiazolyl]carbonyl)-2-(S)-methylpropyl]-L-prolinamide]: 0.33 nM.
For the molecule `CC(=O)N1CC(=O)N(CC(=O)N[C@H](C(=O)c2nnc(Cc3cccc(C)c3)o2)C(C)C)C(=Cc2ccc(F)cc2)C1=O` [CE2105, 1-Acetyl-3-(4-fluorobenzylidene) piperazine-2,5-dione-N-[1-(2-[5-(3-methylbenzyl)-1,3,4-oxadiazolyl]carbonyl)-2-(S)-methylpropyl]acetamide], the Ki came to 0.72 nM.
In the case of `Cc1cccc(Cc2nnc(C(=O)C(NC(=O)CN3C(=O)CN(C)C(=O)C3c3ccccc3)C(C)C)o2)c1` [CE2106, 4-[1-Methyl-3-(R,S)-phenylpiperazine-2,5,-dione]-N-[1-(2-[5-(3-methylbenzyl)-1,3,4-oxadiazolyl]carbonyl)-2-(S)-methylpropyl]acetamide] it was 41 nM; in that of `Cc1cccc(Cc2nnc(C(=O)[C@@H](NC(=O)Cn3c(=O)c(NC(=O)OCc4ccccc4)cc4ccc(N5CCCCC5)cc43)C(C)C)o2)c1` [CE2107, 3-[(Benzyloxycarbonyl)amino]-7-piperidinyl-quinoline-2-one-N-[1-(2-[5-(3-methylbenzyl)-1,3,4-oxadiazolyl]carbonyl)-2-(S)-methylpropyl]acetamide], 17 nM.
For the molecule `Cc1cccc(Cc2nnc(C(=O)[C@@H](NC(=O)Cn3c(=O)c(NC(=O)OCc4ccccc4)cc4ccccc43)C(C)C)o2)c1` [CE2108, 3-[(Benzyloxycarbonyl)amino]-quinoline-2-one-N-[1-(2-[5-(3-methylbenzyl)-1,3,4-oxadiazolyl]carbonyl)-2-(S)-methylpropyl]acetamide], the Ki is 10.5 nM.
Regarding `COC(=O)c1ccc(C=C2C(=O)N(C(C)=O)CC(=O)N2CC(=O)N[C@H](C(=O)c2nnc(Cc3cccc(C)c3)o2)C(C)C)cc1` [CE2112, 1-Acetyl-3-(4-carbomethoxybenzylidene) piperazine-2,5-dione-N-[1-(2-[5-(3-methylbenzyl)-1,3,4-oxadiazolyl]carbonyl)-2-(S)-methylpropyl]acetamide], the Ki is 1.2 nM.
Regarding `CC(=O)N1CC(=O)N(CC(=O)N[C@H](C(=O)c2nnc(Cc3cccc(C)c3)o2)C(C)C)C(=Cc2ccncc2)C1=O` [CE2114, 1-Acetyl-3-[(4-pyridyl)methylene] piperazine-2,5-dione-N-[1-(2-[5-(3-methylbenzyl)-1,3,4-oxadiazolyl]carbonyl)-2-(S)-methylpropyl]acetamide], the Ki is 25 nM.
